Columns and labels:
Assay in all cases: Post-emergence test on weeds (greenhouse, spray at 2-3 leaf stage)
Type in all cases: in vivo
Design in all cases: key: Level 10: completely dead; Level 9: growth control rate greater than or equal to 90% and less than 100%; Level 8: growth control rate greater than or equal to 80% and less than 90%; Level 7: growth control rate greater than or equal to 70% and less than 80%; Level 6: growth control rate greater than or equal to 60% and less than 70%; Level 5: growth control rate greater than or equal to 50% and less than 60%; Level 4: growth control rate greater than or equal to 40% and less than 50%; Level 3: growth control rate greater than or equal to 30% and less than 40%; Level 2: growth control rate greater than or equal to 20% and less than 30%; Level 1: growth control rate less than 20%; Level 0: no effect
Details in all cases: 60 g a.i./ha, 3 weeks after application
Veronica polita = test system: Veronica polita
From the text: (§1) The activity level criteria for plant damage (i.e., growth control rate) are as follows: • Level 10: completely dead; • Level 9: growth control rate greater than or equal to 90% and less than 100%; • Level 8: growth control rate greater than or equal to 80% and less than 90%; • Level 7: growth control rate greater than or equal to 70% and less than 80%; • Level 6: growth control rate greater than or equal to 60% and less than 70%; • Level 5: growth control rate greater than or equal to 50% and less than 60%; • Level 4: growth control rate greater than or equal to 40% and less than 50%; • Level 3: growth control rate greater than or equal to 30% and less than 40%; • Level 2: growth control rate greater than or equal to 20% and less than 30%; • Level 1: growth control rate less than 20%; • Level 0: no effect.
(§2) The above growth control rates are fresh weight control rates.
(§3) Monocotyledonous and dicotyledonous weed seeds (Descurainia sophia, Capsella bursa-pastoris, Abutilon theophrasti, Galium spurium, Stellaria media, Lithospermum arvense, Rorippa indica, Alopecurus aequalis, Alopecurus japonicus, Eleusine indica, Beckmannia syzigachne, Sclerochloa dura, Erigeron canadensis, Phleum paniculatum, Veronica polita, Bromus japonicus, Aegilops tauschii, Phalaris arundinacea, Amaranthus retrofexus, Chenopodium, Commelina communis, Cichorium endivia, Convolvulus arvensis, Cirsium arvense, Solanum nigrum, Acalypha australis, Digitaria sanguinalis, Echinochloa crus-galli, Setaria viridis, Setaa pumila, Lepochloa chinensis, Monochona vaginalis, Sagitta trifolia, Schoenoplectiella juncoides, Cypenus rotundus, Cyperus ira, Cyperus difformis, Fimbristylis, Portulaca oleracea, Xanthium sibiricum, Ipomoea nil, Eschenbachia japonica, etc.) and major crop seeds (wheat, maize, paddy rice, soybean, cotton, oilseed rape, millet, sorghum, potato, sesame, castor plant, etc.) were placed in plastic pots filled with soil and then covered with 0.5-2 cm of soil to allow them to grow in a favorable greenhouse environment. Two weeks after sowing, the test plants were treated at the stage of 2-3 leaves. The test compounds of the present invention were individually dissolved with acetone, then added with Tween® 80, with 1.5 L/ha of methyl oleate emulsifiable concentrate as a synergist, diluted into solutions of certain concentrations using certain amount of water, and sprayed to the plants using a spray tower. After drug application, the experimental results on weeds were collected after 3 weeks of cultivation in a greenhouse. The compounds were applied at 500, 250, […], 15, and 7.5 g a.i./ha in triplicate, and the results were averaged.

Digitaria sanguinalis = test system: Digitaria sanguinalis
From the text: as §1, §2, §3

Abutilon theophrasti = test system: Abutilon theophrasti
From the text: as §1, §2, §3

Echinochloa crus-galli = test system: Echinochloa crus-galli
From the text: as §1, §2, §3

Setaria viridis = test system: Setaria viridis
From the text: as §1, §2, §3

Amaranthus retroflexus = test system: Amaranthus retroflexus
From the text: as §1, §2, §3

COC(=O)C1(C)ON=C(c2cc(-c3ncccc3Cl)c(F)cc2Cl)O1 (stereo not drawn) [Compound 8]
10: activity level (fresh weight growth control rate), Veronica polita (Veronica polita) | activity level (fresh weight growth control rate), Digitaria sanguinalis (Digitaria sanguinalis) | activity level (fresh weight growth control rate), Abutilon theophrasti (Abutilon theophrasti) | activity level (fresh weight growth control rate), Echinochloa crus-galli (Echinochloa crus-galli) | activity level (fresh weight growth control rate), Setaria viridis (Setaria viridis) | activity level (fresh weight growth control rate), Amaranthus retroflexus (Amaranthus retroflexus)

CCOC(=O)C1(C(F)(F)F)ON=C(c2cc(-c3ncc(C(F)(F)F)cc3Cl)c(F)cc2Cl)O1 (stereo not drawn) [Compound 62]
10: activity level (fresh weight growth control rate), Veronica polita (Veronica polita) | activity level (fresh weight growth control rate), Digitaria sanguinalis (Digitaria sanguinalis) | activity level (fresh weight growth control rate), Abutilon theophrasti (Abutilon theophrasti) | activity level (fresh weight growth control rate), Echinochloa crus-galli (Echinochloa crus-galli) | activity level (fresh weight growth control rate), Setaria viridis (Setaria viridis) | activity level (fresh weight growth control rate), Amaranthus retroflexus (Amaranthus retroflexus)

CCOC(=O)C1(C)ON=C(c2cc(-c3ncc(C(F)(F)F)cc3C)c(F)cc2Cl)O1 (stereo not drawn) [Compound 30]
10: activity level (fresh weight growth control rate), Veronica polita (Veronica polita) | activity level (fresh weight growth control rate), Digitaria sanguinalis (Digitaria sanguinalis) | activity level (fresh weight growth control rate), Abutilon theophrasti (Abutilon theophrasti) | activity level (fresh weight growth control rate), Echinochloa crus-galli (Echinochloa crus-galli) | activity level (fresh weight growth control rate), Setaria viridis (Setaria viridis) | activity level (fresh weight growth control rate), Amaranthus retroflexus (Amaranthus retroflexus)

CC(C#N)OC(=O)C1(C)ON=C(c2cc(-c3ncc(C(F)(F)F)cc3Cl)c(F)cc2Cl)O1 (stereo not drawn) [Compound 116]
10: activity level (fresh weight growth control rate), Veronica polita (Veronica polita) | activity level (fresh weight growth control rate), Digitaria sanguinalis (Digitaria sanguinalis) | activity level (fresh weight growth control rate), Abutilon theophrasti (Abutilon theophrasti) | activity level (fresh weight growth control rate), Echinochloa crus-galli (Echinochloa crus-galli) | activity level (fresh weight growth control rate), Setaria viridis (Setaria viridis) | activity level (fresh weight growth control rate), Amaranthus retroflexus (Amaranthus retroflexus)

CC1(C(=O)ON=Cc2ccco2)ON=C(c2cc(-c3ncc(C(F)(F)F)cc3Cl)c(F)cc2Cl)O1 (racemic) [Compound 143]
10: activity level (fresh weight growth control rate), Veronica polita (Veronica polita) | activity level (fresh weight growth control rate), Digitaria sanguinalis (Digitaria sanguinalis) | activity level (fresh weight growth control rate), Abutilon theophrasti (Abutilon theophrasti) | activity level (fresh weight growth control rate), Echinochloa crus-galli (Echinochloa crus-galli) | activity level (fresh weight growth control rate), Setaria viridis (Setaria viridis) | activity level (fresh weight growth control rate), Amaranthus retroflexus (Amaranthus retroflexus)

CCCOC(=O)C1(C)ON=C(c2cc(-c3ncc(Cl)cc3Cl)c(F)cc2Cl)O1 (stereo not drawn) [Compound 87]
10: activity level (fresh weight growth control rate), Veronica polita (Veronica polita) | activity level (fresh weight growth control rate), Digitaria sanguinalis (Digitaria sanguinalis) | activity level (fresh weight growth control rate), Abutilon theophrasti (Abutilon theophrasti) | activity level (fresh weight growth control rate), Echinochloa crus-galli (Echinochloa crus-galli) | activity level (fresh weight growth control rate), Setaria viridis (Setaria viridis) | activity level (fresh weight growth control rate), Amaranthus retroflexus (Amaranthus retroflexus)

CCOC(=O)C1(C)ON=C(c2cc(-c3ncc(Cl)cc3Cl)c(F)cc2Cl)O1 (stereo not drawn) [Compound 40]
10: activity level (fresh weight growth control rate), Veronica polita (Veronica polita) | activity level (fresh weight growth control rate), Digitaria sanguinalis (Digitaria sanguinalis) | activity level (fresh weight growth control rate), Abutilon theophrasti (Abutilon theophrasti) | activity level (fresh weight growth control rate), Echinochloa crus-galli (Echinochloa crus-galli) | activity level (fresh weight growth control rate), Setaria viridis (Setaria viridis) | activity level (fresh weight growth control rate), Amaranthus retroflexus (Amaranthus retroflexus)

C=CCOC(=O)C1(C)ON=C(c2cc(-c3ncc(C(F)(F)F)cc3Cl)c(F)cc2Cl)O1 (stereo not drawn) [Compound 93]
10: activity level (fresh weight growth control rate), Veronica polita (Veronica polita) | activity level (fresh weight growth control rate), Digitaria sanguinalis (Digitaria sanguinalis) | activity level (fresh weight growth control rate), Abutilon theophrasti (Abutilon theophrasti) | activity level (fresh weight growth control rate), Echinochloa crus-galli (Echinochloa crus-galli) | activity level (fresh weight growth control rate), Setaria viridis (Setaria viridis) | activity level (fresh weight growth control rate), Amaranthus retroflexus (Amaranthus retroflexus)

CC1(C(=O)ON=C2CCCC2)ON=C(c2cc(-c3ncc(C(F)(F)F)cc3Cl)c(F)cc2Cl)O1 (racemic) [Compound 145]
10: activity level (fresh weight growth control rate), Veronica polita (Veronica polita) | activity level (fresh weight growth control rate), Digitaria sanguinalis (Digitaria sanguinalis) | activity level (fresh weight growth control rate), Abutilon theophrasti (Abutilon theophrasti) | activity level (fresh weight growth control rate), Echinochloa crus-galli (Echinochloa crus-galli) | activity level (fresh weight growth control rate), Setaria viridis (Setaria viridis) | activity level (fresh weight growth control rate), Amaranthus retroflexus (Amaranthus retroflexus)

CCC1(C(=O)OC)ON=C(c2cc(-c3ncc(Cl)cc3F)c(F)cc2Cl)O1 (stereo not drawn) [Compound 16]
10: activity level (fresh weight growth control rate), Veronica polita (Veronica polita) | activity level (fresh weight growth control rate), Digitaria sanguinalis (Digitaria sanguinalis) | activity level (fresh weight growth control rate), Abutilon theophrasti (Abutilon theophrasti) | activity level (fresh weight growth control rate), Echinochloa crus-galli (Echinochloa crus-galli) | activity level (fresh weight growth control rate), Setaria viridis (Setaria viridis) | activity level (fresh weight growth control rate), Amaranthus retroflexus (Amaranthus retroflexus)

CCOC(=O)C1(C)ON=C(c2cc(-c3ncc(C(F)(F)F)cc3F)c(F)cc2Cl)O1 (stereo not drawn) [Compound 34]
10: activity level (fresh weight growth control rate), Veronica polita (Veronica polita) | activity level (fresh weight growth control rate), Digitaria sanguinalis (Digitaria sanguinalis) | activity level (fresh weight growth control rate), Abutilon theophrasti (Abutilon theophrasti) | activity level (fresh weight growth control rate), Echinochloa crus-galli (Echinochloa crus-galli) | activity level (fresh weight growth control rate), Setaria viridis (Setaria viridis) | activity level (fresh weight growth control rate), Amaranthus retroflexus (Amaranthus retroflexus)

CCCOC(=O)C1(C)ON=C(c2cc(-c3ncc(C(F)(F)F)cc3Cl)c(F)cc2Cl)O1 (stereo not drawn) [Compound 86]
10: activity level (fresh weight growth control rate), Veronica polita (Veronica polita) | activity level (fresh weight growth control rate), Digitaria sanguinalis (Digitaria sanguinalis) | activity level (fresh weight growth control rate), Abutilon theophrasti (Abutilon theophrasti) | activity level (fresh weight growth control rate), Echinochloa crus-galli (Echinochloa crus-galli) | activity level (fresh weight growth control rate), Setaria viridis (Setaria viridis) | activity level (fresh weight growth control rate), Amaranthus retroflexus (Amaranthus retroflexus)

CCOC(=O)C1(C)ON=C(c2cc(-c3ncc(C(F)(F)F)cc3Cl)c(F)cc2C(F)(F)F)O1 (stereo not drawn) [Compound 54]
10: activity level (fresh weight growth control rate), Veronica polita (Veronica polita) | activity level (fresh weight growth control rate), Digitaria sanguinalis (Digitaria sanguinalis) | activity level (fresh weight growth control rate), Abutilon theophrasti (Abutilon theophrasti) | activity level (fresh weight growth control rate), Echinochloa crus-galli (Echinochloa crus-galli) | activity level (fresh weight growth control rate), Setaria viridis (Setaria viridis) | activity level (fresh weight growth control rate), Amaranthus retroflexus (Amaranthus retroflexus)

Reference: patent publication US20250206727A1, “HETEROCYCLIC SUBSTITUTED AROMATIC COMPOUND, PREPARATION METHOD THEREFOR, HERBICIDAL COMPOSITION AND APPLICATION” (QINGDAO KINGAGROOT CHEMICAL COMPOUND CO., LTD., priority 2022, published 2025)
